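Protocol summary: plate cells (96-well), add compound at 5 concentrations, incubate 48 h, interpolate endpoints linearly. GI50 is the concentration that inhibits growth by half.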 Calls of active or inactive are those of the source. Cut-off read from the data, not from the text of the source: active = GI50 up to about 1.1 µM and inactive = higher.
Columns and labels:
Experiment in all cases: NCI tumour cell line growth inhibition, 48 h
[1] = system: A549
[2] = system: CAKI-1
[3] = system: HCC 2998
[4] = system: HOP-62
[5] = system: HOP-92
[6] = system: HT-29
[7] = system: IGROV-1
[8] = system: MCF7
[9] = system: MOLT-4
[10] = system: NCI-H23
[11] = system: NCI-H460
[12] = system: OVCAR-3
[13] = system: RPMI-8226
[14] = system: SK-MEL-2
[15] = system: SNB-19
[16] = system: SNB-75
[17] = system: SR
[18] = system: T47D
[19] = system: U-251
[20] = system: A498

| SMILES | GI50 [1] | GI50 [2] | GI50 [3] | GI50 [4] | GI50 [5] | GI50 [6] | GI50 [7] | GI50 [8] | GI50 [9] | GI50 [10] | GI50 [11] | GI50 [12] | GI50 [13] | GI50 [14] | GI50 [15] | GI50 [16] | GI50 [17] | GI50 [18] | GI50 [19] | GI50 [20] |
| --- | --- | --- | --- | --- | --- | --- | --- | --- | --- | --- | --- | --- | --- | --- | --- | --- | --- | --- | --- | --- |
| CC(=O)NC(CS/N=N/c1[nH]cnc1C(N)=O)C(=O)O (stereo not drawn) | > 100 µM (inactive) | 2.55 µM (inactive) | 4.41 µM (inactive) | 35.9 µM (inactive) | 6.93 µM (inactive) | > 46.9 µM (inactive) | 5.81 µM (inactive) | > 46.8 µM (inactive) | 3.38 µM (inactive) | 38.9 µM (inactive) | 5.57 µM (inactive) | 10 µM (inactive) | 1.46 µM (inactive) | 2.42 µM (inactive) | > 100 µM (inactive) | 16.9 µM (inactive) | < 0.01 µM (active) | > 24.1 µM (inactive) | > 64.9 µM (inactive) | – |
| Cc1ccc([N+](=O)[O-])cc1S(=O)(=O)Nc1ccc(C2=NN(C(=O)c3ccccc3)C(c3ccccc3)C2)cc1 (stereo not drawn) | 18.7 µM (inactive) | 20 µM (inactive) | – | 15.9 µM (inactive) | 14.5 µM (inactive) | 24.9 µM (inactive) | 17 µM (inactive) | 17.1 µM (inactive) | 15.5 µM (inactive) | 21.4 µM (inactive) | – | 11.9 µM (inactive) | 25.5 µM (inactive) | 14.4 µM (inactive) | 29.1 µM (inactive) | 16.9 µM (inactive) | 26.4 µM (inactive) | 10.6 µM (inactive) | 16.6 µM (inactive) | 10.9 µM (inactive) |
| O=c1c2cc([N+](=O)[O-])ccc2n2n1Cc1ccccc1C2 | 79.3 µM (inactive) | 75 µM (inactive) | > 100 µM (inactive) | > 100 µM (inactive) | > 100 µM (inactive) | > 100 µM (inactive) | > 100 µM (inactive) | > 100 µM (inactive) | 35.8 µM (inactive) | > 100 µM (inactive) | 40.6 µM (inactive) | > 100 µM (inactive) | > 100 µM (inactive) | – | > 100 µM (inactive) | > 100 µM (inactive) | 87.3 µM (inactive) | 65.5 µM (inactive) | > 100 µM (inactive) | 63.8 µM (inactive) |
| O=C(O)c1cccc(OCCO)c1 | > 100 µM (inactive) | > 100 µM (inactive) | – | > 100 µM (inactive) | > 100 µM (inactive) | > 100 µM (inactive) | > 100 µM (inactive) | > 100 µM (inactive) | > 100 µM (inactive) | > 100 µM (inactive) | > 100 µM (inactive) | > 100 µM (inactive) | > 100 µM (inactive) | > 100 µM (inactive) | > 100 µM (inactive) | – | > 100 µM (inactive) | > 100 µM (inactive) | > 100 µM (inactive) | > 100 µM (inactive) |
| [N-]=[N+]=CC(=O)CCC(N)C(=O)O (stereo not drawn) | 1.01 µM (active) | 3.8 µM (inactive) | 1.67 µM (inactive) | 1.31 µM (inactive) | 13.8 µM (inactive) | 0.385 µM (active) | 1.92 µM (inactive) | 0.474 µM (active) | 0.721 µM (active) | 4.42 µM (inactive) | 1.38 µM (inactive) | – | 3.54 µM (inactive) | 53.7 µM (inactive) | 8.71 µM (inactive) | 23.1 µM (inactive) | 0.809 µM (active) | 18.7 µM (inactive) | 1.55 µM (inactive) | 24.8 µM (inactive) |
| CNc1cc([N+](=O)[O-])ccc1C(=O)N1CCC[C@H]1CO | > 100 µM (inactive) | – | – | > 100 µM (inactive) | > 100 µM (inactive) | > 100 µM (inactive) | > 100 µM (inactive) | > 100 µM (inactive) | > 100 µM (inactive) | – | > 100 µM (inactive) | > 100 µM (inactive) | > 100 µM (inactive) | > 100 µM (inactive) | > 100 µM (inactive) | > 100 µM (inactive) | 44.3 µM (inactive) | > 100 µM (inactive) | > 100 µM (inactive) | > 100 µM (inactive) |
| CC(C)(C)C(=O)O[C@H]1C=C[C@@H](O)[C@@H]2[C@H]1[C@@H]1C=C[C@H]2C1 | 30 µM (inactive) | 71 µM (inactive) | 14.9 µM (inactive) | – | 22.2 µM (inactive) | – | 3.06 µM (inactive) | 7.18 µM (inactive) | 13.4 µM (inactive) | 12.1 µM (inactive) | 53.8 µM (inactive) | 19.7 µM (inactive) | 17.1 µM (inactive) | 13 µM (inactive) | 70 µM (inactive) | 29.9 µM (inactive) | 18.9 µM (inactive) | 24.8 µM (inactive) | 28.8 µM (inactive) | 20.3 µM (inactive) |

From ChEMBL document CHEMBL1201862, “PubChem BioAssay data set” (2004)
